Here are results for three substances from patent US20240293563A1, “GLP-1 RECEPTOR LIGAND MOIETY CONJUGATED OLIGONUCLEOTIDES AND USES THEREOF” (priority 2017, published 2024).

Square brackets hold non-standard residues; d marks the D form. Side chains are listed from the residue outwards. Ends that are not written are not given here. 5'‑hexylamino oligonucleotide ISIS 722061 = not defined here; 5'‑hexylamino oligonucleotide ION 913192 = not defined here; Aib = CC(C)(N)C(=O)O; Mpa = O=C(O)CCS

Assay [1] deals with FOXO1 mRNA. As to the kind of experiment: FOXO1 mRNA in cultured mouse primary islets of Langerhans treated with ASO. The assay is classed as cell-based. Particulars: for Islet FOXO1 mRNA levels relative to control (RPLP0): percent of untreated cells, 1 μM ASO 3 hrs every 24 hrs. As to the method: Pancreatic islets were isolated by collagenase digestion from pancreas collected from exsanguinated 12 to 15 weeks old female C57BL/6Crl mice. Islets were maintained in tissue culture until use. Islet were dissociated into single cells by shaking in media containing a low extracellular calcium concentration. 10 to 20 intact or dissociated islets were plated on plastic Petri Dishes and treated with 10 μM of antisense oligonucleotides for approximately 24 hrs. After the treatment period cells were harvested, RNA isolated, adjusted to total RNA content, as measured by RIBOGREEN®. MALAT1 or FOXO1 mRNA levels measured by quantitative real-time PCR. […] All data was normalized to the mRNA level of the house keeping gene (RPLP0) in the same sample, measured using a primer probe set with forward sequence […] NO: 71), reverse sequence […] NO: 72) and probe sequence […] NO: 73). Pancreatic islets were isolated by collagenase digestion from pancreas collected from euthanized 12 to 15 weeks old female B6.Cg-Lepob/J mice and maintained in tissue culture until use. 150 intact islets were placed in plastic Petri Dishes and treated with 1 μM of antisense oligonucleotides for 3 hrs every 24 hrs and harvested after approximately 24 hrs, 48 hrs or 96 hrs total treatment time respectively. After the treatment period, islets were harvested, and half of the islets were used to measure FOXO1 mRNA levels as described herein (Example 9). Half of the islets were homogenized in M-PER protein extraction reagent (Thermo Scientific) containing a protease inhibitor cocktail (Complete Mini and phosphoSTOP, Roche Diagnostics). The protein content of lysates were quantitated using BCA Assay Reagent (Pierce). […] For the anti-FoxO1 antibody, the secondary antibody was HRP-conjugated polyclonal goat anti-Rabbit P0448 (DAKO) and for the anti-α-tubulin antibody, the secondary antibody was HRP-conjugated polyclonal goat anti-mouse P0447 (DAKO). Enhanced chemiluminescence reagents (Pierce) were used for detection.

Assay [2] deals with FoxO1 protein. Kind of assay: FoxO1 protein (Western Blot) in cultured mouse primary islets of Langerhans treated with ASO. The assay is classed as cell-based. The conditions noted are these: Western Blot normalized to α-tubulin; islets treated for 96 hours; 1 μM. As to the method: Pancreatic islets were isolated by collagenase digestion from pancreas collected from euthanized 12 to 15 weeks old female B6.Cg-Lepob/J mice and maintained in tissue culture until use. 150 intact islets were placed in plastic Petri Dishes and treated with 1 μM of antisense oligonucleotides for 3 hrs every 24 hrs and harvested after approximately 24 hrs, 48 hrs or 96 hrs total treatment time respectively. After the treatment period, islets were harvested, and half of the islets were used to measure FOXO1 mRNA levels as described herein (Example 9). Half of the islets were homogenized in M-PER protein extraction reagent (Thermo Scientific) containing a protease inhibitor cocktail (Complete Mini and phosphoSTOP, Roche Diagnostics). The protein content of lysates were quantitated using BCA Assay Reagent (Pierce). […] For the anti-FoxO1 antibody, the secondary antibody was HRP-conjugated polyclonal goat anti-Rabbit P0448 (DAKO) and for the anti-α-tubulin antibody, the secondary antibody was HRP-conjugated polyclonal goat anti-mouse P0447 (DAKO). Enhanced chemiluminescence reagents (Pierce) were used for detection. […] Protein levels were quantified by measuring the intensity of the bands on the gel normalized to the intensity of α-tubulin, and expressed as percent of vehicle treated islets. FoxO1 protein levels were set to 100% in vehicle treated islets. […]
(In general: Immunoblotting shows a protein as a band on a membrane.)

The subject of assay [3] is FOXO1 mRNA. As to the kind of experiment: FOXO1 mRNA in isolated islets and liver after 6 weeks repeated administration to ob/ob mice. The assay is classed as in vivo, mouse. The conditions noted are these: ob/ob mice. As to the method: Pancreatic islets were isolated by collagenase digestion from pancreas collected from exsanguinated 12 to 15 weeks old female C57BL/6Crl mice. Islets were maintained in tissue culture until use. Islet were dissociated into single cells by shaking in media containing a low extracellular calcium concentration. 10 to 20 intact or dissociated islets were plated on plastic Petri Dishes and treated with 10 μM of antisense oligonucleotides for approximately 24 hrs. After the treatment period cells were harvested, RNA isolated, adjusted to total RNA content, as measured by RIBOGREEN®. MALAT1 or FOXO1 mRNA levels measured by quantitative real-time PCR. […] All data was normalized to the mRNA level of the house keeping gene (RPLP0) in the same sample, measured using a primer probe set with forward sequence […] NO: 71), reverse sequence […] NO: 72) and probe sequence […] NO: 73). Male ob/ob mice (B6.V-Lepob/OlaHsd, Harlan) were assigned to five treatment groups receiving either vehicle, 0.1 μmol/kg ISIS 776102, 0.1 μmol/kg ION 913195, 0.03 ION 913193 or 1 μmol/kg ION 913193. All animals were treated once weekly for 6 weeks. Approximately 120 hrs after last dose all animals were sacrificed, liver samples collected and pancreatic islets isolated, as described herein (Example 9), for mRNA analysis. FOXO1 mRNA levels were quantified as described herein (Example 9) and mRNA levels expressed relative to housekeeping gene in each sample (RPLP0).

The test system of assay [4] is FoxO1 protein. As to the kind of experiment: FoxO1 protein levels in islets isolated from ob/ob mice treated for 6 weeks. The assay is classed as in vivo, mouse. As for the experimental part:
Pancreatic islets were isolated by collagenase digestion from pancreas collected from euthanized 12 to 15 weeks old female B6.Cg-Lepob/J mice and maintained in tissue culture until use. 150 intact islets were placed in plastic Petri Dishes and treated with 1 μM of antisense oligonucleotides for 3 hrs every 24 hrs and harvested after approximately 24 hrs, 48 hrs or 96 hrs total treatment time respectively. After the treatment period, islets were harvested, and half of the islets were used to measure FOXO1 mRNA levels as described herein (Example 9). Half of the islets were homogenized in M-PER protein extraction reagent (Thermo Scientific) containing a protease inhibitor cocktail (Complete Mini and phosphoSTOP, Roche Diagnostics). The protein content of lysates were quantitated using BCA Assay Reagent (Pierce). […] For the anti-FoxO1 antibody, the secondary antibody was HRP-conjugated polyclonal goat anti-Rabbit P0448 (DAKO) and for the anti-α-tubulin antibody, the secondary antibody was HRP-conjugated polyclonal goat anti-mouse P0447 (DAKO). Enhanced chemiluminescence reagents (Pierce) were used for detection. Male ob/ob mice (B6.V-Lepob/OlaHsd, Harlan) were assigned to five treatment groups receiving either vehicle, 0.1 μmol/kg ISIS 776102, 0.1 μmol/kg ION 913195, 0.03 ION 913193 or 1 μmol/kg ION 913193. All animals were treated once weekly for 6 weeks. Approximately 120 hrs after last dose all animals were sacrificed, liver samples collected and pancreatic islets isolated, as described herein (Example 9), for mRNA analysis. FOXO1 mRNA levels were quantified as described herein (Example 9) and mRNA levels expressed relative to housekeeping gene in each sample (RPLP0). Male ob/ob mice were assigned to five treatment groups as described herein (Example 17) Approximately 120 hrs after last dose all animals were sacrificed and pancreatic islets isolated for FoxO1 protein analysis as described herein (Example 10). Random samples were selected from each treatment group and loaded on each gel such that at least one sample from each treatment group was analysed on the same gels. FoxO1 protein levels were measured by quantifying the intensity and normalized against the α-tublin levels in the same sample. All samples within individual gels were expressed as percentage of the levels measured in islets of animals receiving ION 913195.

Assay [5] concerns MALAT1. As to the kind of experiment: MALAT1 in situ hybridization in beta islet cells after i.v. GLP-1 ASO conjugates with various linkers. The assay is classed as in vivo, mouse. Particulars: male C57BL/6 mice; intravenous 0.6 μmol/kg/week once a week for three weeks; 72 hours after final injection.
Assay [6] relates to MALAT-1. As to the kind of experiment: Dose-dependent reduction of MALAT-1 expression in LVX-GLP1R cells. The assay is classed as cell-based, human. As to the method:
HEK cells stably expressing FLAG-tagged GLP1R were generated by infecting HEK 293 cells with FLAG-tagged GLP1R containing lentivirus produced by transfection of 293T cells with pLVX-IRES-Puro (Clontech Laboratories Inc., Mountainview, CA) harboring the FLAG-GLP1R insert. Infected cells were selected with puromycin (2 μg/ml) and then analyzed for receptor expression by western blot and immunofluorescence. Cultured GLP1R cells were plated at a density of 10,000 cells per well and treated with 0.3, 1, 3, 9, 27, 82, 247, 741, 2,222, 6,667, and 20,000 nM modified oligonucleotide for approximately 24 hours. After the treatment period, total RNA was prepared using an RNeasy mini kit (Qiagen, Valencia, CA, USA) and qRT-PCR was performed using the primer probe set RTS2739 (forward sequence: […] (SEQ ID NO: 74), reverse sequence: […] (SEQ ID NO: 75), probe sequence: […] (SEQ ID NO: 76). Briefly, ˜50 ng total RNA in 5 d water was mixed with 0.3 d primer probe sets containing forward and reverse primers (10 μM of each) and fluorescently labeled probe (3 μM), 0.3 W RT enzyme mix (Qiagen), 4.4 d RNase-free water, and 10 d of 2×PCR reaction buffer in a 20 d reaction. Reverse transcription was performed at 48° C. for 10 min, 40 cycles of PCR were conducted at 94° C. for 20 s, and 60° C. for 20 s within each cycle, using StepOne Plus RT-PCR system (Applied Biosystems, Phoenix, AZ, USA). The mRNA levels were normalized to the amount of total RNA present in each reaction as determined by Ribogreen assay (Life Technologies) and normalized to the saline control (100% expression).

In assay [7] the test system is MALAT1. As to the kind of experiment: Effect of peptide composition and attachment point on peptide-conjugated ASO activity in LVX-GLP1R cells. The assay is classed as cell-based, human. Particulars: 7 doses in a 4-fold dilution series, MALAT1 RNA.
[8] abbreviates: 0.03 μmol/kg once weekly for 6 weeks.
Where [9] appears, read: 0.1 μmol/kg once weekly for 6 weeks.

As to “ION 913193 (H[Aib]EGTFTSDVSSYLEEQAAKEFIAWLVKGGPSSGAPPPSC([Mpa-5'‑hexylamino oligonucleotide ION 913192])-NH2; reading uncertain; also: Cys40 joined to the linker by a disulfide)”, in assay [1] (mouse islets, 1 μM ASO, summary of Table 2), the “reduction in FOXO1 mRNA” value is recorded as “more than 70%”. Besides, the figures for the “Islet FOXO1 mRNA levels relative to control (RPLP0)” value in assay [1] (24 hours), in assay [1] (48 hours) and in assay [1] (96 hours) were 31%, 30% and 25%, respectively. In assay [2], the “FoxO1 protein levels, percent of vehicle treated islets” value is on record as 5%. The “average FOXO1 mRNA reduction in isolated islets of Langerhans” value in assay [3] (setting [8]) amounted to 42%; in assay [3] (setting [9]) it was 72%. For the same substance, the “Foxo1 protein levels reduced relative to ION 913195” value in assay [4] (setting [8]) is recorded as 57%; in assay [4] (setting [9]), 81%. The “Foxo1 protein levels reduced relative to animals treated with 0.1 μmol/kg ISIS 776102” value in assay [4] (setting [8]) was 64%; in assay [4] (setting [9]), 36%.

In general, IC50 refers to the concentration that gives 50% inhibition. As to “ION 962963 (H[Aib]EGTFTSDVSSYLEEQAAKEFIAWLVKGGPSSGAPPPSC([Mpa-5'‑hexylamino oligonucleotide ISIS 722061])-NH2; reading uncertain; also: Cys40 joined to the linker by a disulfide)”, in assay [5], the “MALAT1 expression in beta islet cells compared to saline control (in situ hybridization)” value was “reduced”. Also, the “dose-dependent inhibition of MALAT-1” value in assay [6] (GLP1R HEK cells, GLP-1 complexed ASOs with or without a TCA linker versus parent) is “increased dose-dependent inhibition”. Further, the IC50 in assay [6] (approximately 24 hours, read-out: IC50 (MALAT-1 expression in GLP1R HEK cells)) is 350 nM.

In assay [7], “ION 1083569 (HSEGTFTSDVSSYLEGQAAKEFIAWLVKGRX; C-terminal Z = 4-azidonorleucine, joined by a click reaction to the 5'-BCN MALAT1 oligonucleotide ION 791173; C-terminal amide)” registered an IC50 of 2020 nM.
